How the values were obtained:
[1] = target: T1, Solute carrier family 22 member 1 (Rattus norvegicus, UniProt Q63089); assay: TP_TRANSPORTER: inhibition of TEA uptake (TEA: 500 uM, PAH: 5000 uM) in OCT1A expressing Xenopus laevis oocytes; assay type: functional, cell-based; conditions: oocyte
T1 sequence (Q63089 whole entry): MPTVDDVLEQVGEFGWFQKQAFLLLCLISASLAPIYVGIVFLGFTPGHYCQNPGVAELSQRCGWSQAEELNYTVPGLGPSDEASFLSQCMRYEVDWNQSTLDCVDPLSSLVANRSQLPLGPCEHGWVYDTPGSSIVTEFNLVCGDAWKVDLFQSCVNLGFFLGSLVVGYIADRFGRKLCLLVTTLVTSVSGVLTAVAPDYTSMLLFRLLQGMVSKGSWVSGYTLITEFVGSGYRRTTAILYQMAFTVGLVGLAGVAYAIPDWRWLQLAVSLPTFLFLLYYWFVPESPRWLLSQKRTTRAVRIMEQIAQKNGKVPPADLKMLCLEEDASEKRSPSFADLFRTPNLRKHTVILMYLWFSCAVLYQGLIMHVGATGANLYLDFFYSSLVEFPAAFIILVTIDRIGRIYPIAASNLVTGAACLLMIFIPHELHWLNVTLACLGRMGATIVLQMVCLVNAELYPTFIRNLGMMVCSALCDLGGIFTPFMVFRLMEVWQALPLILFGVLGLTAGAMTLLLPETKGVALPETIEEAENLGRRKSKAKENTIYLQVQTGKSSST

[2] = target: T1, Solute carrier family 22 member 1; assay: TP_TRANSPORTER: inhibition of TEA uptake (basolateral to cell) (TEA: 500 uM, NMN: 5000 uM) in OCT1A expressing Xenopus laevis oocytes; assay type: functional, cell-based; conditions: oocyte
[3] = target: T1, Solute carrier family 22 member 1; assay: TP_TRANSPORTER: inhibition of TEA uptake (TEA: 500 uM, Procainamide: 5000 uM) in OCT1A expressing Xenopus laevis oocytes; assay type: functional, cell-based; conditions: oocyte
[4] = target: T1, Solute carrier family 22 member 1; assay: TP_TRANSPORTER: inhibition of TEA uptake (TEA: 500 uM, Guanidine: 5000 uM) in OCT1A expressing Xenopus laevis oocytes; assay type: functional, cell-based; conditions: oocyte
[5] = substrate: CC[N+](CC)(CC)CC; assay: cells, lysate or membranes named

Nc1ccc(C(=O)NCC(=O)O)cc1 [AMINOHIPPURIC ACID]
Activity [1]: inhibitor [+]

CNC(=O)c1cccnc1 [NICOTINYL METHYLAMIDE]
Activity [2]: inhibitor [+]

CCN(CC)CCNC(=O)c1ccc(N)cc1 [PROCAINAMIDE]
Activity [3]: inhibitor [+]

N=C(N)N [GUANIDINE]
Activity [4]: inhibitor [+]

B1: Solute carrier family 22 member 1 (Rattus norvegicus) (protein)
chain: MPTVDDVLEQVGEFGWFQKQAFLLLCLISASLAPIYVGIVFLGFTPGHYCQNPGVAELSQRCGWSQAEELNYTVPGLGPSDEASFLSQCMRYEVDWNQSTLDCVDPLSSLVANRSQLPLGPCEHGWVYDTPGSSIVTEFNLVCGDAWKVDLFQSCVNLGFFLGSLVVGYIADRFGRKLCLLVTTLVTSVSGVLTAVAPDYTSMLLFRLLQGMVSKGSWVSGYTLITEFVGSGYRRTTAILYQMAFTVGLVGLAGVAYAIPDWRWLQLAVSLPTFLFLLYYWFVPESPRWLLSQKRTTRAVRIMEQIAQKNGKVPPADLKMLCLEEDASEKRSPSFADLFRTPNLRKHTVILMYLWFSCAVLYQGLIMHVGATGANLYLDFFYSSLVEFPAAFIILVTIDRIGRIYPIAASNLVTGAACLLMIFIPHELHWLNVTLACLGRMGATIVLQMVCLVNAELYPTFIRNLGMMVCSALCDLGGIFTPFMVFRLMEVWQALPLILFGVLGLTAGAMTLLLPETKGVALPETIEEAENLGRRKSKAKENTIYLQVQTGKSSST
Km [5]: 42 µM

Reference: ChEMBL document CHEMBL2073935, “Cloning and functional characterization of a rat renal organic cation transporter isoform (rOCT1A)” (J Biol Chem, 1997)
